{"source": "patent US12077503B2", "about": "“Substituted cyclic amides and their use as herbicides” (FMC CORPORATION, priority 2015, dated 2024)", "assay_in_all_cases": "Test D preemergence", "type_in_all_cases": "in vivo", "conditions_in_all_cases": "scale 0 to 100", "key": {"[1]": {"system": "Galium (catchweed bedstraw, Galium aparine)", "text": "(§1) Seeds of plant species selected from bluegrass (annual bluegrass, Poa annua), blackgrass (Alopecurus myosuroides), canarygrass (littleseed canarygrass, Phalaris minor), chickweed (common chickweed, Stellaria media), Galium (catchweed bedstraw, Galium aparine), bromegrass, downy (downy bromegrass, Bromus tectorum), field poppy (Papaver rhoeas), field violet (Viola arvensis), foxtail, green (green foxtail, Setaria viridis), deadnettle (henbit deadnettle, Lamium amplexicaule), ryegrass, Italian (Italian ryegrass, Lolium multiflorum), Kochia (Kochia scoparia), lambsquarters (Chenopodium album), oilseed rape (Brassica napus), pigweed (Amaranthus retroflexus), chamomile (scentless chamomile, Matricaria inodora), Russian thistle (Salsola kali), speedwell (bird's-eye speedwell, Veronica persica), barley, spring (spring barley, Hordeum vulgare), wheat, spring (spring wheat, Triticum aestivum), buckwheat, wild (wild buckwheat, Polygonum convolvulus), mustard, wild (wild mustard, Sinapis arvensis), oat, wild (wild oat, Avena fatua), radish, wild (wild radish, Raphanus raphanistrum), windgrass (Apera spica-venti), barley, winter (winter barley Hordeum vulgare), and wheat, winter (winter wheat, Triticum aestivum) were planted into a silt loam soil and treated preemergence with test chemicals formulated in a non-phytotoxic solvent mixture which included a surfactant.\n(§2) Treated plants and controls were maintained in a controlled growth environment approximately 21 d after which time all species were compared to controls and visually evaluated. Plant response ratings, summarized in Table D, are based on a scale of 0 to 100 where 0 is no effect and 100 is complete control. A dash (-) response means no test result."}, "[2]": {"system": "Russian thistle (Salsola kali)", "text": "as §1, §2"}, "[3]": {"system": "barley, winter (winter barley Hordeum vulgare)", "text": "as §1, §2"}, "[4]": {"system": "blackgrass (Alopecurus myosuroides)", "text": "as §1, §2"}, "[5]": {"system": "bluegrass (annual bluegrass, Poa annua)", "text": "as §1, §2"}, "[6]": {"system": "bromegrass, downy (downy bromegrass, Bromus tectorum)", "text": "as §1, §2"}, "[7]": {"system": "buckwheat, wild (wild buckwheat, Polygonum convolvulus)", "text": "as §1, §2"}, "[8]": {"system": "canarygrass (littleseed canarygrass, Phalaris minor)", "text": "as §1, §2"}, "[9]": {"system": "chamomile (scentless chamomile, Matricaria inodora)", "text": "as §1, §2"}, "[10]": {"system": "chickweed (common chickweed, Stellaria media)", "text": "as §1, §2"}, "[11]": {"system": "deadnettle (henbit deadnettle, Lamium amplexicaule)", "text": "as §1, §2"}, "[12]": {"system": "field violet (Viola arvensis)", "text": "as §1, §2"}, "[13]": {"system": "foxtail, green (green foxtail, Setaria viridis)", "text": "as §1, §2"}, "[14]": {"system": "lambsquarters (Chenopodium album)", "text": "as §1, §2"}, "[15]": {"system": "mustard, wild (wild mustard, Sinapis arvensis)", "text": "as §1, §2"}, "[16]": {"system": "oat, wild (wild oat, Avena fatua)", "text": "as §1, §2"}, "[17]": {"system": "oilseed rape (Brassica napus)", "text": "as §1, §2"}, "[18]": {"system": "radish, wild (wild radish, Raphanus raphanistrum)", "text": "as §1, §2"}, "[19]": {"system": "ryegrass, Italian (Italian ryegrass, Lolium multiflorum)", "text": "as §1, §2"}, "[20]": {"system": "wheat, spring (spring wheat, Triticum aestivum)", "text": "as §1, §2"}, "[21]": {"system": "wheat, winter (winter wheat, Triticum aestivum)", "text": "as §1, §2"}, "[22]": {"system": "windgrass (Apera spica-venti)", "text": "as §1, §2"}}}
{"smiles": "CN1CC(c2ccc(C(F)(F)F)cc2)C(C(=O)Nc2ccccc2S(C)(=O)=O)C1=O", "note": "(stereo not shown) [Compound 624]", "values": [{"measurement": "Plant response rating: Galium", "setting": "[1]; 31 g ai/ha", "value": 0}, {"measurement": "Plant response rating: Galium", "setting": "[1]; 62 g ai/ha", "value": 0}, {"measurement": "Plant response rating: Galium", "setting": "[1]; 125 g ai/ha", "value": 0}, {"measurement": "Plant response rating: Galium", "setting": "[1]; 250 g ai/ha", "value": 0}, {"measurement": "Plant response rating: Russian Thistle", "setting": "[2]; 31 g ai/ha", "value": 0}, {"measurement": "Plant response rating: Russian Thistle", "setting": "[2]; 62 g ai/ha", "value": 30}, {"measurement": "Plant response rating: Russian Thistle", "setting": "[2]; 125 g ai/ha", "value": 10}, {"measurement": "Plant response rating: Russian Thistle", "setting": "[2]; 250 g ai/ha", "value": 50}, {"measurement": "Plant response rating: Barley, Winter", "setting": "[3]; 31 g ai/ha", "value": 0}, {"measurement": "Plant response rating: Barley, Winter", "setting": "[3]; 62 g ai/ha", "value": 0}, {"measurement": "Plant response rating: Barley, Winter", "setting": "[3]; 125 g ai/ha", "value": 0}, {"measurement": "Plant response rating: Barley, Winter", "setting": "[3]; 250 g ai/ha", "value": 40}, {"measurement": "Plant response rating: Blackgrass", "setting": "[4]; 31 g ai/ha", "value": 5}, {"measurement": "Plant response rating: Blackgrass", "setting": "[4]; 62 g ai/ha", "value": 5}, {"measurement": "Plant response rating: Blackgrass", "setting": "[4]; 125 g ai/ha", "value": 15}, {"measurement": "Plant response rating: Blackgrass", "setting": "[4]; 250 g ai/ha", "value": 85}, {"measurement": "Plant response rating: Bluegrass", "setting": "[5]; 31 g ai/ha", "value": 10}, {"measurement": "Plant response rating: Bluegrass", "setting": "[5]; 62 g ai/ha", "value": 25}, {"measurement": "Plant response rating: Bluegrass", "setting": "[5]; 125 g ai/ha", "value": 55}, {"measurement": "Plant response rating: Bluegrass", "setting": "[5]; 250 g ai/ha", "value": 65}, {"measurement": "Plant response rating: Bromegrass, Downy", "setting": "[6]; 31 g ai/ha", "value": 0}, {"measurement": "Plant response rating: Bromegrass, Downy", "setting": "[6]; 62 g ai/ha", "value": 10}, {"measurement": "Plant response rating: Bromegrass, Downy", "setting": "[6]; 125 g ai/ha", "value": 20}, {"measurement": "Plant response rating: Bromegrass, Downy", "setting": "[6]; 250 g ai/ha", "value": 20}, {"measurement": "Plant response rating: Buckwheat, Wild", "setting": "[7]; 31 g ai/ha", "value": 0}, {"measurement": "Plant response rating: Buckwheat, Wild", "setting": "[7]; 62 g ai/ha", "value": 0}, {"measurement": "Plant response rating: Buckwheat, Wild", "setting": "[7]; 125 g ai/ha", "value": 15}, {"measurement": "Plant response rating: Buckwheat, Wild", "setting": "[7]; 250 g ai/ha", "value": 50}, {"measurement": "Plant response rating: Canarygrass", "setting": "[8]; 31 g ai/ha", "value": 0}, {"measurement": "Plant response rating: Canarygrass", "setting": "[8]; 62 g ai/ha", "value": 15}, {"measurement": "Plant response rating: Canarygrass", "setting": "[8]; 125 g ai/ha", "value": 25}, {"measurement": "Plant response rating: Canarygrass", "setting": "[8]; 250 g ai/ha", "value": 45}, {"measurement": "Plant response rating: Chamomile", "setting": "[9]; 31 g ai/ha", "value": 0}, {"measurement": "Plant response rating: Chamomile", "setting": "[9]; 62 g ai/ha", "value": 95}, {"measurement": "Plant response rating: Chamomile", "setting": "[9]; 125 g ai/ha", "value": 90}, {"measurement": "Plant response rating: Chamomile", "setting": "[9]; 250 g ai/ha", "value": 100}, {"measurement": "Plant response rating: Chickweed", "setting": "[10]; 31 g ai/ha", "value": 15}, {"measurement": "Plant response rating: Chickweed", "setting": "[10]; 125 g ai/ha", "value": 60}, {"measurement": "Plant response rating: Chickweed", "setting": "[10]; 250 g ai/ha", "value": 85}, {"measurement": "Plant response rating: Deadnettle", "setting": "[11]; 31 g ai/ha", "value": 0}, {"measurement": "Plant response rating: Deadnettle", "setting": "[11]; 62 g ai/ha", "value": 0}, {"measurement": "Plant response rating: Deadnettle", "setting": "[11]; 125 g ai/ha", "value": 25}, {"measurement": "Plant response rating: Deadnettle", "setting": "[11]; 250 g ai/ha", "value": 70}, {"measurement": "Plant response rating: Field Violet", "setting": "[12]; 31 g ai/ha", "value": 10}, {"measurement": "Plant response rating: Field Violet", "setting": "[12]; 62 g ai/ha", "value": 10}, {"measurement": "Plant response rating: Field Violet", "setting": "[12]; 125 g ai/ha", "value": 10}, {"measurement": "Plant response rating: Field Violet", "setting": "[12]; 250 g ai/ha", "value": 10}, {"measurement": "Plant response rating: Foxtail, Green", "setting": "[13]; 31 g ai/ha", "value": 40}, {"measurement": "Plant response rating: Foxtail, Green", "setting": "[13]; 62 g ai/ha", "value": 50}, {"measurement": "Plant response rating: Foxtail, Green", "setting": "[13]; 125 g ai/ha", "value": 90}, {"measurement": "Plant response rating: Foxtail, Green", "setting": "[13]; 250 g ai/ha", "value": 95}, {"measurement": "Plant response rating: Lambsquarters", "setting": "[14]; 31 g ai/ha", "value": 0}, {"measurement": "Plant response rating: Lambsquarters", "setting": "[14]; 62 g ai/ha", "value": 70}, {"measurement": "Plant response rating: Lambsquarters", "setting": "[14]; 125 g ai/ha", "value": 35}, {"measurement": "Plant response rating: Lambsquarters", "setting": "[14]; 250 g ai/ha", "value": 60}, {"measurement": "Plant response rating: Mustard, Wild", "setting": "[15]; 31 g ai/ha", "value": 15}, {"measurement": "Plant response rating: Mustard, Wild", "setting": "[15]; 62 g ai/ha", "value": 30}, {"measurement": "Plant response rating: Mustard, Wild", "setting": "[15]; 250 g ai/ha", "value": 70}, {"measurement": "Plant response rating: Oat, Wild", "setting": "[16]; 31 g ai/ha", "value": 0}, {"measurement": "Plant response rating: Oat, Wild", "setting": "[16]; 62 g ai/ha", "value": 5}, {"measurement": "Plant response rating: Oat, Wild", "setting": "[16]; 125 g ai/ha", "value": 15}, {"measurement": "Plant response rating: Oat, Wild", "setting": "[16]; 250 g ai/ha", "value": 35}, {"measurement": "Plant response rating: Oilseed Rape", "setting": "[17]; 31 g ai/ha", "value": 0}, {"measurement": "Plant response rating: Oilseed Rape", "setting": "[17]; 62 g ai/ha", "value": 25}, {"measurement": "Plant response rating: Oilseed Rape", "setting": "[17]; 125 g ai/ha", "value": 35}, {"measurement": "Plant response rating: Oilseed Rape", "setting": "[17]; 250 g ai/ha", "value": 65}, {"measurement": "Plant response rating: Radish, Wild", "setting": "[18]; 31 g ai/ha", "value": 0}, {"measurement": "Plant response rating: Radish, Wild", "setting": "[18]; 125 g ai/ha", "value": 0}, {"measurement": "Plant response rating: Radish, Wild", "setting": "[18]; 250 g ai/ha", "value": 75}, {"measurement": "Plant response rating: Ryegrass, Italian", "setting": "[19]; 31 g ai/ha", "value": 0}, {"measurement": "Plant response rating: Ryegrass, Italian", "setting": "[19]; 62 g ai/ha", "value": 0}, {"measurement": "Plant response rating: Ryegrass, Italian", "setting": "[19]; 125 g ai/ha", "value": 25}, {"measurement": "Plant response rating: Ryegrass, Italian", "setting": "[19]; 250 g ai/ha", "value": 25}, {"measurement": "Plant response rating: Wheat, Spring", "setting": "[20]; 31 g ai/ha", "value": 5}, {"measurement": "Plant response rating: Wheat, Spring", "setting": "[20]; 62 g ai/ha", "value": 10}, {"measurement": "Plant response rating: Wheat, Spring", "setting": "[20]; 125 g ai/ha", "value": 15}, {"measurement": "Plant response rating: Wheat, Spring", "setting": "[20]; 250 g ai/ha", "value": 40}, {"measurement": "Plant response rating: Wheat, Winter", "setting": "[21]; 31 g ai/ha", "value": 0}, {"measurement": "Plant response rating: Wheat, Winter", "setting": "[21]; 62 g ai/ha", "value": 0}, {"measurement": "Plant response rating: Wheat, Winter", "setting": "[21]; 125 g ai/ha", "value": 5}, {"measurement": "Plant response rating: Wheat, Winter", "setting": "[21]; 250 g ai/ha", "value": 10}, {"measurement": "Plant response rating: Windgrass", "setting": "[22]; 31 g ai/ha", "value": 15}, {"measurement": "Plant response rating: Windgrass", "setting": "[22]; 62 g ai/ha", "value": 25}, {"measurement": "Plant response rating: Windgrass", "setting": "[22]; 125 g ai/ha", "value": 85}, {"measurement": "Plant response rating: Windgrass", "setting": "[22]; 250 g ai/ha", "value": 95}]}
